Experimental data published in patent US20220267352A1, “RAPAMYCIN ANALOGS AND USES THEREOF” (Anakuria Therapeutics, Inc., priority 2021, published 2022).
pIC50: −log10 of the molar value.

Assays:
Type in all cases: cell-based
[1] = test system: p-p70 S6 Kinase (Thr389) in MCF-7 cells; test: AlphaLISA Ultra pS6K1 assay; conditions: Homo sapiens, 1.5 h; MCF7 cells, 90 min
Summary of the method: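 Phospho-S6K1 (Thr389) quantified by AlphaLISA Ultra read-out (2 h acceptor, then 2 h donor beads) in lysates of MCF-7 cells. Cells were plated 20–24 h before, refed 2 h, exposed to compounds for 90 min at 0.5% final DMSO, and lysates stored at −80 °C.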

[2] = test system: p-Akt 1/2/3 (Ser473) in MCF-7 cells; test: AlphaLISA Ultra pAKT assay; conditions: Homo sapiens, 1.5 h; MCF7 cells, 90 min
Summary of the method: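 MCF-7 cells (16,000˜20,000 per well in 36 μL medium) were seeded in Corning 3701 plates for 20˜24 hour, refreshed with new medium for 90 minutes, then given 12 μL of 4× compound (0.5% final DMSO). Cells were lysed with 2× lysis buffer, and lysate was analyzed by AlphaLISA Ultra pAKT using acceptor and donor beads, read on an EnSpire reader.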

mTORC1 over mTORC2 = mTORC1 over mTORC2 selectivity by comparing pS6K1 and pAKT IC50; conditions: by comparing pS6K1 and pAKT IC50, 90 min
Summary of the method: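 MCF-7 cells were treated with compounds (0.5% final DMSO) for 90 minutes in one protocol and 2 hours in the other, then lysed. Phospho-signal in lysates was read by bead-based donor/acceptor proximity assay. pS6K1 and pAKT IC50 values were compared to judge mTORC1 over mTORC2 selectivity, at 90 min and at 24 hrs.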

SMILES | pIC50 [1] | pIC50 [2] | mTORC1 selective @ 90 min (mTORC1 over mTORC2)
COCCS(=O)(=O)CCO[C@@H]1C[C@@H]2CC[C@@H](C)[C@@](O)(O2)C(=O)C(=O)N2CCCC[C@H]2C(=O)O[C@H]([C@H](C)C[C@@H]2CC[C@@H](OC)[C@H](OC)C2)CC(=O)[C@H](C)/C=C(\C)[C@@H](OC)[C@@H](OC)C(=O)[C@H](C)C[C@H](C)/C=C/C=C/C=C/1C [I-42, (24E,26E,28E,29E,35R,36S,37R,38R,40S,42S,44R,45S,46R,47R,56R)-45-[(1R)-2-[(1S,3R,4R)-3,4-dimethoxycyclohexyl]-1-methyl-ethyl]-56-hydroxy-46,47-dimethoxy-44-[2-(2-methoxyethylsulfonyl)ethoxy]-35,36,37,38,48,49-hexamethyl-66,67-dioxa-57-azatricyclohexatriaconta-24,26,28(48),29(49)-tetraene-50,51,52,53,54-pentone] | 7.00 to 8.00 | ≤ 6.00 | Yes
COCCO[C@@H]1CC[C@@H](C[C@@H](C)[C@@H]2CC(=O)[C@H](C)/C=C(\C)[C@@H](OC)[C@@H](OC)C(=O)[C@H](C)C[C@H](C)/C=C/C=C/C=C(\C)[C@H](OCCOC3COC3)C[C@@H]3CC[C@@H](C)[C@@](O)(O3)C(=O)C(=O)N3CCCC[C@H]3C(=O)O2)C[C@H]1OC [I-82, (1R,9S,12S,15R,16E,18R,19R,21R,23S,24E,26E,28E,30R,32S,35R)-1-hydroxy-18,19-dimethoxy-12-[(1R)-2-[(1S,3R,4R)-3-methoxy-4-(2-methoxyethoxy)cyclohexyl]-1-methyl-ethyl]-15,17,21,23,29,35-hexamethyl-30-[2-(oxetan-3-yloxy)ethoxy]-11,36-dioxa-4-azatricyclo[30.3.1.0^4,9]hexatriaconta-16,24,26,28-tetraene-2,3,10,14,20-pentone] | 7.00 to 8.00 | ≤ 6.00 | Yes
CO[C@@H]1/C(C)=C/[C@@H](C)C(=O)C[C@@H]([C@H](C)C[C@@H]2CC[C@@H](OCCCO)[C@H](OC)C2)OC(=O)[C@@H]2CCCCN2C(=O)C(=O)[C@]2(O)O[C@@H](CC[C@H]2C)C[C@@H](OCCOC2COC2)/C(C)=C/C=C/C=C/[C@@H](C)C[C@@H](C)C(=O)[C@@H]1OC [I-44, (23E,25E,27E,28E,35R,36S,37R,38R,40S,42S,44R,45S,47R,48R,57R)-47,57-dihydroxy-45-[(1R)-2-[(1S,3R,4R)-4-(3-hydroxypropoxy)-3-methoxy-cyclohexyl]-1-methyl-ethyl]-48-methoxy-35,36,37,38,49,50-hexamethyl-44-[2-(oxetan-3-yloxy)ethoxy]-68,69-dioxa-58-azatricyclohexatriaconta-23,25,27(49),28(50)-tetraene-51,52,53,54,55-pentone] | 8.00 to 9.00 | ≤ 6.00 | Yes
CO[C@@H]1/C(C)=C/[C@@H](C)C(=O)C[C@@H]([C@H](C)C[C@@H]2CC[C@@H](OP(C)(C)=O)[C@H](OC)C2)OC(=O)[C@@H]2CCCCN2C(=O)C(=O)[C@]2(O)O[C@@H](CC[C@H]2C)CC(OCCOC2COC2)/C(C)=C/C=C/C=C/[C@@H](C)C[C@@H](C)C(=O)[C@@H]1OC (stereo partly drawn) [I-75, (1R,2R,4S)-4-((2R)-2-((3S,6R,7E,9R,10R,12R,14S,15E,17E,19E,23S,26R,27R,34aS)-27-hydroxy-9,10-dimethoxy-6,8,12,14,20,26-hexamethyl-21-(2-(oxetan-3-yloxy)ethoxy)-1,5,11,28,29-pentaoxo-1,4,5,6,9,10,11,12,13,14,21,22,23,24,25,26,27,28,29,31,32,33,34,34a-tetracosahydro-3H-23,27-epoxypyrido[2,1-c][1]oxa[4]azacyclohentriacontin-3-yl)propyl)-2-methoxycyclohexyl dimethylphosphinate] | ≤ 6.00 | ≤ 6.00 | Yes
COCCOCCOC1C[C@@H]2CC[C@@H](C)[C@@](O)(O2)C(=O)C(=O)N2CCCC[C@H]2C(=O)O[C@H]([C@H](C)C[C@@H]2CCC(OC3COC3)[C@H](OC)C2)CC(=O)[C@H](C)/C=C(\C)[C@@H](O)[C@@H](OC)C(=O)[C@H](C)C[C@H](C)/C=C/C=C/C=C/1C (stereo partly drawn) [I-7, (24E,26E,28E,29E,35R,36S,37R,38R,40S,42S,45S,47R,48R,57R)-47,57-dihydroxy-48-methoxy-44-[2-(2-methoxyethoxy)ethoxy]-45-[(1R)-2-[(1S,3R)-3-methoxy-4-(oxetan-3-yloxy)cyclohexyl]-1-methyl-ethyl]-35,36,37,38,49,50-hexamethyl-67,68-dioxa-58-azatricyclohexatriaconta-24,26,28(49),29(50)-tetraene-51,52,53,54,55-pentone] | 8.00 to 9.00 | ≤ 6.00 | Yes
CO[C@@H]1/C(C)=C/[C@@H](C)C(=O)C[C@@H]([C@H](C)C[C@@H]2CC[C@@H](OC)[C@H](OC)C2)OC(=O)[C@@H]2CCCCN2C(=O)C(=O)[C@]2(O)O[C@@H](CC[C@H]2C)CC(OCCOC2COC2)/C(C)=C/C=C/C=C/[C@@H](C)C[C@@H](C)C(=O)[C@@H]1OC (stereo partly drawn) [I-50, (25E,27E,29E,30E,34R,35S,36R,37R,39S,41S,44S,46R,47R,56R)-44-[(1R)-2-[(1S,3R,4R)-3,4-dimethoxycyclohexyl]-1-methyl-ethyl]-56-hydroxy-46,47-dimethoxy-34,35,36,37,48,49-hexamethyl-43-[2-(oxetan-3-yloxy)ethoxy]-65,66-dioxa-57-azatricyclohexatriaconta-25,27,29(48),30(49)-tetraene-50,51,52,53,54-pentone] | 8.00 to 9.00 | ≤ 6.00 | Yes
COCCOCCO[C@@H]1C[C@@H]2CC[C@@H](C)[C@@](O)(O2)C(=O)C(=O)N2CCCC[C@H]2C(=O)O[C@H]([C@H](C)C[C@@H]2CC[C@@H](OP(C)(C)=O)[C@H](OC)C2)CC(=O)[C@H](C)/C=C(\C)[C@@H](OC)[C@@H](OC)C(=O)[C@H](C)C[C@H](C)/C=C/C=C/C=C/1C [I-33, (25E,27E,29E,30E,36R,37S,38R,39R,41S,43S,45R,46S,47R,48R,57R)-46-[(1R)-2-[(1S,3R,4R)-4-dimethylphosphoryloxy-3-methoxy-cyclohexyl]-1-methyl-ethyl]-57-hydroxy-47,48-dimethoxy-45-[2-(2-methoxyethoxy)ethoxy]-36,37,38,39,49,50-hexamethyl-66,67-dioxa-58-azatricyclohexatriaconta-25,27,29(49),30(50)-tetraene-51,52,53,54,55-pentone] | 8.00 to 9.00 | ≤ 6.00 | Yes

Second part, led by results:

pIC50 [1] | pIC50 [2] | SMILES | mTORC1 selective @ 90 min (mTORC1 over mTORC2)
8.00 to 9.00 | ≤ 6.00 | CO[C@@H]1C[C@H](C[C@@H](C)[C@@H]2CC(=O)[C@H](C)/C=C(\C)[C@@H](O)[C@@H](OC)C(=O)[C@H](C)C[C@H](C)/C=C/C=C/C=C(\C)C(OCCOC3COC3)C[C@@H]3CC[C@@H](C)[C@@](O)(O3)C(=O)C(=O)N3CCCC[C@H]3C(=O)O2)CC[C@H]1OCCCN1CC2(COC2)C1 (stereo partly drawn) [I-91, (27E,29E,31E,32E,39R,40S,41R,42R,44S,46S,49S,51R,52R,62R)-51,62-dihydroxy-52-methoxy-49-[(1R)-2-[(1S,3R,4R)-3-methoxy-4-[3-(2-oxa-6-azaspiro[3.3]heptan-6-yl)propoxy]cyclohexyl]-1-methyl-ethyl]-39,40,41,42,53,54-hexamethyl-48-[2-(oxetan-3-yloxy)ethoxy]-74,75-dioxa-63-azatricyclohexatriaconta-27,29,31(53),32(54)-tetraene-55,56,57,58,59-pentone] | Yes
8.00 to 9.00 | ≤ 6.00 | CO[C@@H]1C[C@H](C[C@@H](C)[C@@H]2CC(=O)[C@H](C)/C=C(\C)[C@@H](O)[C@@H](OC)C(=O)[C@H](C)C[C@H](C)/C=C/C=C/C=C(\C)[C@@H](OCC3COCCO3)C[C@@H]3CC[C@@H](C)[C@@](O)(O3)C(=O)C(=O)N3CCCC[C@H]3C(=O)O2)CC[C@H]1OCCCO (stereo partly drawn) [I-93, (24E,26E,28E,29E,35R,36S,37R,38R,40S,42S,44S,45S,47R,48R,57R)-44-(1,4-dioxan-2-ylmethoxy)-47,57-dihydroxy-45-[(1R)-2-[(1S,3R,4R)-4-(3-hydroxypropoxy)-3-methoxy-cyclohexyl]-1-methyl-ethyl]-48-methoxy-35,36,37,38,49,50-hexamethyl-69,70-dioxa-58-azatricyclohexatriaconta-24,26,28(49),29(50)-tetraene-51,52,53,54,55-pentone] | Yes
8.00 to 9.00 | ≤ 6.00 | CO[C@@H]1C[C@H](C[C@@H](C)[C@@H]2CC(=O)[C@H](C)/C=C(\C)[C@@H](O)[C@@H](OC)C(=O)[C@H](C)C[C@H](C)/C=C/C=C/C=C(\C)C(OCCOC3COC3)C[C@@H]3CC[C@@H](C)[C@@](O)(O3)C(=O)C(=O)N3CCCC[C@H]3C(=O)O2)CC[C@H]1OP(C)(C)=O (stereo partly drawn) [I-89, (1R,9S,12S,15R,16E,18R,19R,21R,23S,24E,26E,28E,32S,35R)-12-[(1R)-2-[(1S,3R,4R)-4-dimethylphosphoryloxy-3-methoxy-cyclohexyl]-1-methyl-ethyl]-1,18-dihydroxy-19-methoxy-15,17,21,23,29,35-hexamethyl-30-[2-(oxetan-3-yloxy)ethoxy]-11,36-dioxa-4-azatricyclo[30.3.1.04,9]hexatriaconta-16,24,26,28-tetraene-2,3,10,14,20-pentone] | Yes
